Results: patent EP4596556A1, “SPIROCYCLIC DERIVATIVE-CONTAINING SALT OR CRYSTAL FORM, AND PREPARATION METHOD THEREFOR AND USE THEREOF” (Shujing Biopharma Co., Ltd, priority 2022, dated 2024)
Converted amounts (≈) assume the structure as drawn. Counter-ions that a name gives are not always drawn. Like-named read-outs stand apart in the source and are kept apart here.

Key:
[1] = molecular target: T1, 5-HT1A receptor (Homo sapiens, UniProt P08908); test: 5-HT1A receptor cAMP agonist test; assay type: cell-based
T1 sequence (P08908 1-422): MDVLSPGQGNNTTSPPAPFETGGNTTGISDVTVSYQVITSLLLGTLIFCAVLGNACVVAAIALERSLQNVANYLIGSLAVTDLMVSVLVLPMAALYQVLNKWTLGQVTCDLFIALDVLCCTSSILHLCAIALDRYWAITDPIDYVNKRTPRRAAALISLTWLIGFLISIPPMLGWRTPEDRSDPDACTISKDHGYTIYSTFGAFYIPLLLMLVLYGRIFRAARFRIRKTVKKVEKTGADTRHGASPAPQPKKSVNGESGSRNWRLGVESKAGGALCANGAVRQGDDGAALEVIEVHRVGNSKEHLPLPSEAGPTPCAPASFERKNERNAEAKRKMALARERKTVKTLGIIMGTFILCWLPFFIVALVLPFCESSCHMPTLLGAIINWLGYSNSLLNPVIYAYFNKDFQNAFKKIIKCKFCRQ
Description: The cAMP detection kit was purchased from Cisbio; the HEK293 cell line stably expressing 5-HT1A receptor was constructed by Shanghai Shujing Biotechnology Co., Ltd.; Serotonin, Forskolin and IBMX were purchased from Sigma; ProxiPlate-384-well plates was purchased from PerkinElmer; HBSS was purchased from Thermo Fisher Scientific.
Activation rate (activity%)=(negative control ratio-compound ratio)/(negative control ratio-positive control ratio)×100%
The EC50 values of the compounds were calculated using the four-parameter fitting model log(agonist)vs. response--Variable slope(four parameters) in Graph Pad Prism.

[2] = system: high spontaneous activity induced by MK-801 in mice; test: Inhibition of high spontaneous activity induced by MK-801 in mice; assay type: in vivo; conditions: p.o., MK-801 0.3 mg/kg i.p., male C57Bl/6J mice
Procedure: Compounds to be tested: compounds in the examples of the present application, self-made.
3.2.1 Grouping of animals: before the start of the experiment, animals were randomly grouped according to body weight.
3.2.2 Animal adaptation: before the experiment, the mice were first adapted to the experimental environment for at least 1 hour. That is, the animals were transferred from the breeding room to the laboratory and moved freely in the cage.
(§1) Drug preparation: taking the compound to be tested, adding pure water and performing ultrasonication.
The blank control group was injected with normal saline.
(§2) The activities of these animals (movement distance in the test box) were automatically recorded by the camera, and analyzed with ANY MAZE software, and the ED50 values were calculated.

[3] = molecular target: T2, TAAR1 receptor (Homo sapiens, UniProt Q96RJ0); test: TAAR1 receptor cAMP agonist test; assay type: cell-based
T2 sequence (Q96RJ0 1-339): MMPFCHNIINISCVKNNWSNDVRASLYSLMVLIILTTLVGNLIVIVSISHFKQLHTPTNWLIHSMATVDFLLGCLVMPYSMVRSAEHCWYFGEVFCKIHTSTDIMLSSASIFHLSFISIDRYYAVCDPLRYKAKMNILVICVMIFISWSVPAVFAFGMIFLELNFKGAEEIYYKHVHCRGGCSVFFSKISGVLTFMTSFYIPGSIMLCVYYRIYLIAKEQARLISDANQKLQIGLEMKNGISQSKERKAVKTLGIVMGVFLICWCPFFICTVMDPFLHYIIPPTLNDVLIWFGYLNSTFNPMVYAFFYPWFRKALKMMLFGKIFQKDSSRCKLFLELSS
Description: The cAMP detection kit was purchased from Cisbio; the […] cell line stably expressing TAAR1 receptor was constructed by Shanghai Shujing Biotechnology Co., Ltd.; IBMX was purchased from Sigma; Phenethylamine (PEA); ProxiPlate-384 well plate was purchased from PerkinElmer; HBSS was purchased from Thermo Fisher Scientific Company.
Activation rate (activity%)=(negative control ratio-compound ratio)/(negative control ratio-positive control ratio)×100%.
The EC50 values of the compounds were calculated using the four-parameter fitting model log(agonist)vs.response--Variable slope(four parameters) in GraphPad Prism.

[4] = system: high spontaneous activity induced by PCP in mice; test: Inhibition of high spontaneous activity induced by PCP in mice; assay type: in vivo; conditions: p.o., PCP 5 mg/kg i.p., male C57Bl/6J mice
Procedure: Compounds to be tested: compounds of the examples of the present application, self-made.
That is, animals were transferred from the feeding room to the laboratory, and moved freely in the cage.
as §1
T0 min intraperitoneal injection of modeling drug: 30 minutes after compound administration, the mice were taken out, and administered with PCP (5 mg/kg) by intraperitoneal injection. The blank control group was injected with pure water. After the administration of PCP, the animals were immediately put back into the test box, and the test was continued for 60 minutes.
as §2

[5] = Equilibrium solubility in water for 24 hours; assay type: physicochemical
Procedure: Investigating the equilibrium solubility of each hydrochloride crystal form of Compound A in water for 24 hours.
Excess samples of hydrochloride crystal form I and hydrochloride crystal form II of Compound A were weighed and placed in different 10 mL centrifuge tubes, and 1 mL of deionized water was added, sealed with a parafilm, shaking at a constant temperature of 37°C and 150 rpm for 24 hours; after passing through a 0.45 µm organic filter, the sample was diluted and injected for HPLC analysis.

[6] = Mouse pharmacokinetic experiment, oral gavage; assay type: in vivo; conditions: ICR mice, 5 mg/kg, plasma
Procedure: The mice were administered by oral gavage, and the plasma concentrations of each hydrochloride crystal form of Compound A in mice were determined, the PK parameters were calculated, and the pharmacokinetics were evaluated.
• (1) Experimental samples: hydrochloride crystal forms I, II, and III of Compound A of the present application, self-made. • (2) Experimental animals: ICR mice, SPF grade, male, Shanghai SLAC Laboratory Animal Co., Ltd.
The compound was administered via oral gavage at a dosage of 5 mg/kg. ICR mice were stratified by body weight and randomly divided into groups of 3 mice each, and fasted overnight before the experiment. Administering according to the prescribed dosage and schedule, and […] of blood was taken from the mandibular vein or saphenous vein of mice by cross sampling at fixed time points to a sample tube containing anticoagulant sodium heparin and placed in wet ice, centrifuging at 4000 r · min^-1 for 10 minutes to separate the plasma for LC-MS analysis.
The measured blood drug concentration-time data was substituted into the Winnonlin 7.0 program to calculate the main pharmacokinetic parameters. Table 3.3: Results of mouse pharmacokinetic experiments

[7] = Solid (chemical) stability under high temperature, high humidity and light; assay type: physicochemical
Procedure: Investigating the chemical stability of each hydrochloride crystal form of Compound A under high temperature, high humidity, and light conditions.
Appropriate amounts of hydrochloride crystal form I and hydrochloride crystal form II of Compound A were weighed and placed in weighing dishes respectively; three samples for each salt were prepared, and placed respectively in a oven at 60°C, a drying dish with RH 92.5%, and a stability test chamber with an illumination condition of 5000 1x for 85 days. After mixing all samples evenly at day 0, day 10, day 20, and day 85, samples were taken and dissolved in acetonitrile and water, and the content and impurity changes were detected by HPLC-related substance detection method.

[8] = Solution stability at different pH (HPLC content, 0-24 hours); assay type: physicochemical; conditions: after 24 hours at pH 1.0, 3.0, 5.0 and 7.0
Procedure: Investigating the solution stability of each hydrochloride crystal form of Compound A.
Solutions with pH of 1.0, 3.0, 5.0, and 7.0 solutions were prepared using hydrochloric acid, phosphoric acid, and sodium hydroxide. Appropriate amounts of hydrochloride crystal form I and hydrochloride crystal form II of Compound A were accurately weighed respectively and added to corresponding 20 mL volumetric flasks and labeled, dissolving in media with different pH, passing through a 0.45 µ m organic filters for HPLC analysis. The content changes of the samples from 0-24 hours were monitor, and the results were calculated.

[9] = Mus musculus, half effective dose

SMILES: CNC[C@@H]1OCC2(CC2)c2sccc21 (single isomer, unassigned) [Compound A]
- EC50 ([1]; cAMP agonist assay, HEK293 cell line stably expressing 5-HT1A receptor, Forskolin): 1.04 µM
- 5-HT1A Max Act% ([1]; maximum activation rate relative to Serotonin positive control): 95.2%
- ED50 [2, 9]: 4.48 mg/kg
- MED ([2]; minimum effective dose): 10 mg/kg
- EC50 ([3]; cAMP agonist assay, cell line stably expressing TAAR1 receptor): 1.55 µM
- TAAR1 Max Act% ([3]; maximum activation rate relative to PEA positive control): 95.5%
- ED50 [4, 9]: 0.45 mg/kg
- MED ([4]; minimum effective dose): 0.1 mg/kg

SMILES: CNC[C@@H]1OCC2(CC2)c2sccc21 [(R)-1-(4'H,6'H-spiro[cyclopropane-1,7'-thieno[3,2-c]pyran]-4'-yl)-N-methylmethyl-amine]
- solubility at 24 h ([5]; deionized water, 37 °C, water, thermodynamic from solid): 155 mg/mL (≈ 740 mM)
- AUC(inf) [6]: 1452.6 ng·h/mL
- Cmax [6]: 480.3 ng/mL
- Tmax [6]: 0.5 h
- t1/2 [6]: 3.6 h
- AUC(0-inf) ([6]; male, ICR, mouse, po): 1930 ng·h/mL
- half-life ([6]; male, ICR, mouse, po): 2.8 h
- Cmax ([6]; male, ICR, mouse, po, read-out: Cmax): 606 ng/mL
- Tmax ([6]; male, mouse, read-out: Tmax): 0.5 h

SMILES: CNC[C@@H]1OCC2(CC2)c2sccc21 [Hydrochloride crystal form I of Compound A] [(R)-1-(4'H,6'H-spiro[cyclopropane-1,7'-thieno[3,2-c]pyran]-4'-yl)-N-methylmethyl-amine]
- Increase of total impurities (%) day 10 ([7]; High humidity of RH 92.5%): <0.1%
- Increase of total impurities (%) day 20 ([7]; High humidity of RH 92.5%): <0.1%
- Increase of total impurities (%) day 85 ([7]; High humidity of RH 92.5%): 0.199%
- Increase of total impurities (%) day 10 ([7]; High temperature of 60°C): <0.1%
- Increase of total impurities (%) day 20 ([7]; High temperature of 60°C): <0.1%
- Increase of total impurities (%) day 85 ([7]; High temperature of 60°C): 0.182%
- Increase of total impurities (%) day 10 ([7]; Illumination of 5000 lx): <0.1%
- Increase of total impurities (%) day 20 ([7]; Illumination of 5000 lx): <0.1%
- Increase of total impurities (%) day 85 ([7]; Illumination of 5000 lx): <0.1%
- solution stability [8]: good stability

SMILES: CNC[C@@H]1OCC2(CC2)c2sccc21 [Hydrochloride crystal form II of Compound A] [(R)-1-(4'H,6'H-spiro[cyclopropane-1,7'-thieno[3,2-c]pyran]-4'-yl)-N-methylmethyl-amine]
- Increase of total impurities (%) day 10 ([7]; High humidity of RH 92.5%): <0.1%
- Increase of total impurities (%) day 20 ([7]; High humidity of RH 92.5%): <0.1%
- Increase of total impurities (%) day 85 ([7]; High humidity of RH 92.5%): 0.145%
- Increase of total impurities (%) day 10 ([7]; High temperature of 60°C): <0.1%
- Increase of total impurities (%) day 20 ([7]; High temperature of 60°C): <0.1%
- Increase of total impurities (%) day 85 ([7]; High temperature of 60°C): 0.133%
- Increase of total impurities (%) day 10 ([7]; Illumination of 5000 lx): <0.1%
- Increase of total impurities (%) day 20 ([7]; Illumination of 5000 lx): <0.1%
- Increase of total impurities (%) day 85 ([7]; Illumination of 5000 lx): <0.1%
- Solubility ([5]; equilibrium solubility in deionized water, 37°C): 162.30 mg/mL
- AUC(inf) [6]: 1546.6 ng·h/mL
- Cmax [6]: 488.7 ng/mL
- Tmax [6]: 0.5 h
- t1/2 [6]: 2.2 h
- solution stability [8]: good stability
